The test system of one data set is male SD (IGS) rat. Briefly: Forced swim test in rats. The format is in vivo. Conditions: for Immobility time / Immobility time as compared with that in the vehicle treated group: forced swim; for Immobility time: 5 minutes observation on 2nd day; for Immobility time / Inhibition (%): test compound orally 5 mL/kg (desipramine intraperitoneally 2 mL/kg) after 1st examination and 1 hour before 2nd, twelve animals per group; for Immobility time as compared with that in the vehicle treated group: rate of inhibition statistically significant; for Inhibition (%): inhibition of immobility vs. vehicle. As for the experimental part:
The seven-week old male SD (IGS) rat freely fed was solely put into the forced swimming equipment (the cylinder (Neuroscience, Inc.) of diameter of inner 19 cm, and height 40 cm, depth-sounding 17 cm, water temperature of 23±1° C.) manufactured with the transparent acrylics board, and let it swim for 15 minutes. The rat was immediately dried after the end of trial and was returned to the home cage. […] In this time, the behavior of rat is distinguished by immobile state, struggling, submerging and swimming. The immobility time, period that rats were floating on the water by taking their head outside of the water without stroking by both legs, were measured. In addition, the water in equipment was exchanged for every trial. Moreover, one trial was conducted for each animal.
The test compound was administered orally by 5 mL/kg dosage immediately after the end of the examination on the 1st, and 1 hour before the examination on the 2nd. And, the positive control compound (desipramine; […]) was similarly administered intraperitoneally by 2 mL/kg dosage immediately after the end of the examination on the 1st, and 1 hour before the examination on the 2nd.
In addition, in any case, twelve animals were used for each group.

The subject of the next data set is male ddy mice. Description: Tail-suspension test in mice. It counts as in vivo. Conditions: for Inhibition (%): inhibition of immobility vs. vehicle; for Inhibition (%) / Immobility time: 10 mg/kg orally 1 hour before measurement, ten animals per group; for Immobility time / Immobility time as compared with that in the vehicle treated group: tail suspension; for Immobility time: immobility time for 10 minutes; for Immobility time as compared with that in the vehicle treated group: rate of inhibition statistically significant. The procedure:
It was confirmed by the following experiments that the compounds of formula of (IA)-(IK) could be useful for the treatment of depression. The following paper can be referred to about a tail-suspension test and its testing system in mice. • 1) Psychopharmacology (1985) 85: 367-370 • 2) Prog. Neuro-Psychopharmacol. & Biol. Psychiat. 1987 Vol. 11, 659-671 (1) Tail-Suspension Test in Mice
The test compound (10 mg/kg animal body weight) was administered orally to male ddy mice weighing around 30 g 1 hour before the beginning of measurement. The mice were suspended by their tail on the hook of Tail Suspension TEST System (Neuroscience, Inc., Model NS-TST01-SS2) using adhesive tape. The subsequent immobility time for 10 minutes was measured. If the mice have none of administration, they get about 300 seconds as an immobility time in this experiment. Generally, the medicine having an anti-depressive action shortens this immobility time.
In addition, in any case, ten animals were used for each group.

A short description of data set [1]: Toxicity (LD50 by oral administration to mouse). The settings on record: in vivo. As for the experimental part:
The toxicity of the compounds of the present invention is very low and therefore, it is confirmed that these compounds are safe for use as medicine. For example, LD50 values of the compound A and B of the present invention by oral administration to mouse are 2000 mg/kg and over.

Molecules are shown by their SMILES.

The term LD50 denotes the dose expected to kill half of the subjects tested. A low value points to a more toxic substance.

Take `Cc1csc(S(=O)(=O)N(CC(C)C)c2cc3c(cc2OCc2ccc(C(=O)O)cc2)CCC3)n1` [Compound K, 4-[6-[N-isobutyl-N-(4-methyl-2-thizolylsulfonyl)amino]indan-5-yloxymethyl]benzoic acid]: in the data set with male SD (IGS) rat, the “Immobility time” value is 172 ± 17 s, the “Immobility time as compared with that in the vehicle treated group” value (“Immobility time as compared with that” below) is “shortened” and the “Inhibition (%)” value was determined as 29 ± 7 %.
The corresponding values for `Cc1ccc(C(=O)N(c2ccc(C(F)(F)F)cc2OCc2ccc(/C=C/C(=O)O)cc2)C(C)C)o1` [Compound J, 4-[5-trifluoromethyl-2-[N-(5-methyl-2-furylcarbonyl)-N-isopropylamino]phenoxymethyl]cinnamic acid] are 194 ± 16 s, “shortened” and 20 ± 7 %.
As to `Cc1cc(Cl)ccc1S(=O)(=O)NC[C@H]1C2CCC(CC2)[C@H]1/C=C\CCCC(=O)O` [Compound A, 6-[(2S, 3S)-3-(4-chloro-2-methylphenylsulfonylaminomethyl)-bicyclo[2.2.2]octan-2-yl]-5Z-hexenoic acid], in the data set on male ddy mice, the “Inhibition (%)” value amounted to 30 ± 7 %, the “Immobility time” value turned out to be 202 ± 20 s and the “Immobility time as compared with that” value is “shortened”.
As to `CC(C)CN(c1ccc(C(F)(F)F)cc1OCc1ccc(C=CC(=O)O)cc1)S(=O)(=O)c1ccco1` [Compound C, 4-[2-(N-isobutyl-2-furanylsulfonylamino)-5-trifluoromethylphenoxymethyl]cinnamic acid], in the data set with male ddy mice, the “Inhibition (%)” value is given as 23 ± 7 %, the “Immobility time” value turned out to be 212 ± 20 s and the “Immobility time as compared with that” value was “shortened”.
Turning to `CCCN(c1cc(C)c(C)cc1OCc1ccc(C(=O)O)cc1)S(=O)(=O)c1ccc(C)o1` [Compound H, 4-[4,5-dimethyl-2-[N-(5-methyl-2-furylsulfonyl)-N-propylamino]phenoxymethyl]benzoic acid], in the data set on male SD (IGS) rat, the “Immobility time” value worked out at 156 ± 21 s, the “Immobility time as compared with that” value is “shortened” and the “Inhibition (%)” value came to 35 ± 9 %.
Regarding `Cc1ccc(S(=O)(=O)N(CC(C)C)c2cc3c(cc2OCc2ccc(/C=C/C(=O)O)cc2)CCC3)o1` [Compound F, 4-[6-[N-isobutyl-N-(5-methyl-2-furylsulfonyl)amino]indan-5-yloxymethyl]cinnamic acid], in the data set on male ddy mice, the “Inhibition (%)” value is given as 47 ± 9 %, the “Immobility time” value is 160 ± 26 s and the “Immobility time as compared with that” value was “shortened”.
Regarding `Cc1ccc(S(=O)(=O)N(c2ccc(C(F)(F)F)cc2OCc2ccc(C(=O)O)cc2)C(C)C)o1` [Compound B, 4-[2-[N-isopropyl-N-(5-methyl-2-furylsulfonyl)amino]-5-trifluoromethylphenoxymethyl]benzoic acid], in data set [1], the LD50 was ≥ 2000 mg/kg. Further, in the data set with male ddy mice, the “Inhibition (%)” value is 35 ± 8 %, the “Immobility time” value was determined as 194 ± 23 s and the “Immobility time as compared with that” value is “shortened”. In the data set with male SD (IGS) rat, the “Immobility time” value amounted to 163 ± 21 s, the “Immobility time as compared with that” value was “shortened” and the “Inhibition (%)” value came out at 31 ± 9 %.
On to `Cc1ccc(S(=O)(=O)N(CC(C)C)c2cc(C)c(C)cc2OCc2ccc(C(=O)O)cc2C)o1` [Compound E, 3-methyl-4-[2-[N-isobutyl-N-(5-methyl-2-furylsulfonyl)amino]4,5-dimethylphenoxymethyl]benzoic acid], for which, in the data set on male ddy mice, the “Inhibition (%)” value is reported as 38 ± 12 %, the “Immobility time” value stood at 185 ± 36 s and the “Immobility time as compared with that” value was “shortened”.
Taken in the same sequence, the figures for `Cc1ccc(S(=O)(=O)N(CC(C)C)c2cc(C)c(C)cc2OCc2ccc(C(=O)O)cc2)o1` [Compound D, 4 [2-[N-isobutyl-N-(5-methyl-2-furylsulfonyl)amino]-4,5-dimethylphenoxymethyl]benzoic acid] were 27 ± 8 %, 217 ± 24 s and “shortened”.
Consider `CNCCCN1c2ccccc2CCc2ccccc21` [Desipramine, desipramine, reference compound], for which, in the data set with male SD (IGS) rat, the “Immobility time” value came out at 112 ± 15 s and the “Inhibition (%)” value was determined as 53 ± 6 %.

(Values after US7335776B2, “Remedies for depression containing EP1 antagonist as the active ingredient” (Ono Pharmaceutical Co., Ltd., priority 2002, dated 2008).)
